Patent publication US20240180877A1, “ANTI-ANXIETY COMPOSITION” (SUNTORY HOLDINGS LIMITED, priority 2021, published 2024)

Legend:
[1] = target: T1, Recombinant human α3/β4 nicotinic acetylcholine receptors (nAChR (α3β4)) (Homo sapiens, UniProt P30926+P32297); test: Inhibition of [125I]epibatidine binding to nAChR (α3β4) cell membranes
T1 construct: host or cells: CHO-K1
Method: (§1) In order to evaluate molecular targets for reducing glutamate signaling by L-ergothioneine, nicotinic acetylcholine receptors associated with glutamate signaling were subjected to in vitro assay. The in vitro assay was commissioned to Eurofins Panlabs. The test was performed by the following method.
Recombinant human α3/β4 nicotinic acetylcholine receptors (nAChR (α3β4)) expressed in Chinese hamster ovary-derived CHO-K1 cells were used. Cell membranes (0.6 μg) of the cells expressing nAChR (α3β4) were incubated in Tris-HCl buffer (pH 7.4) with 0.05 nM [125I]epibatidine and L-ergothioneine (L-ergothioneine concentration: 30 μM, 100 μM, 300 μM, 1000 μM, or 3000 μM) at 25° C. for 60 minutes. Non-specific binding was estimated in the presence of 10 μM epibatidine. The cell membranes were filtered through a filter and washed, and the activity of L-ergothioneine to inhibit binding of substrates was evaluated using radioactivity of [125I]epibatidine as an index.

[2] = target: T2, Recombinant human α4/β2 nicotinic acetylcholine receptors (nAChR (α4β2)) (Homo sapiens, UniProt P17787+P43681); test: Inhibition of [3H]cytisine binding to nAChR (α4β2) cell membranes; conditions: FIG. 3; 100 μM or 1000 μM; 0.6 nM [3H]cytisine; SH-SY5Y cell membranes
T2 construct: host or cells: SH-SY5Y
Method: as §1
Recombinant human α4/β2 nicotinic acetylcholine receptors (nAChR (α4β2)) expressed in human neuroblastoma-derived SH-SY5Y cells were used. Cell membranes (30 μg) of the cells expressing nAChR (α4β2) were incubated in Tris-HCl buffer (pH 7.4) with 0.6 nM [3H]cytisine and L-ergothioneine (L-ergothioneine concentration: 100 μM or 1000 μM) at 4° C. for 120 minutes. Non-specific binding was estimated in the presence of 10 μM nicotine bitartrate. The cell membranes were filtered through a filter and washed, and the activity of L-ergothioneine to inhibit binding of substrates was evaluated using radioactivity of [3H]cytisine as an index.

[3] = target: Recombinant human α7 nicotinic acetylcholine receptors (nAChR (α7)) (Homo sapiens, UniProt P36544); format: binding; conditions: FIG. 3; 100 μM or 1000 μM; 0.4 nM [125I]-α-bungarotoxin; SH-SY5Y cell membranes
Chain of Recombinant human α7 nicotinic acetylcholine receptors (nAChR (α7)) (P36544 23-502): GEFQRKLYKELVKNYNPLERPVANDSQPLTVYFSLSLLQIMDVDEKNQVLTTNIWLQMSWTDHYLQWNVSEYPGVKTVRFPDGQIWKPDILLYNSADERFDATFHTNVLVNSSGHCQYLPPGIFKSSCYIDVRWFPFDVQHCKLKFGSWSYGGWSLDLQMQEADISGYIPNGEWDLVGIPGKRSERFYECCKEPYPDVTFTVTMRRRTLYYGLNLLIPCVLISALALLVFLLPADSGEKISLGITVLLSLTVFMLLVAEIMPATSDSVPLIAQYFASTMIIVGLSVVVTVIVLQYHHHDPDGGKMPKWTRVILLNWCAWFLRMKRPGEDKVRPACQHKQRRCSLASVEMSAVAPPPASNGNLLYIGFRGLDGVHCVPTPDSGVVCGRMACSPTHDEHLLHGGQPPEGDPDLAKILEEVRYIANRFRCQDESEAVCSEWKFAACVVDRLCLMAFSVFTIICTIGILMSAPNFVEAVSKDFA

T1 sequence (P30926 22-498): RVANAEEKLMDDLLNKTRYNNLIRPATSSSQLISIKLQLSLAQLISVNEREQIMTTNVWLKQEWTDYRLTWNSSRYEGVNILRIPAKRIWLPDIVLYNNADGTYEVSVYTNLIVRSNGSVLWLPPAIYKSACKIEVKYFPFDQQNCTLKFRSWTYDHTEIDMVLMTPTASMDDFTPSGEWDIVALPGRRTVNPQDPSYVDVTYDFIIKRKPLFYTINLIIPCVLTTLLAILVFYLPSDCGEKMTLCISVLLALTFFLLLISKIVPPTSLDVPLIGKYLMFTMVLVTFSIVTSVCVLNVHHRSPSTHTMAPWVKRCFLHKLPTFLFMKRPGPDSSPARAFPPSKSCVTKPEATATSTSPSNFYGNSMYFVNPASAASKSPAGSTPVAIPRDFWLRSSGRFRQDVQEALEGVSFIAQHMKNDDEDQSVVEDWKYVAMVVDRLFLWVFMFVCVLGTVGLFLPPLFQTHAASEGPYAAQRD
T1 sequence (P32297 32-505): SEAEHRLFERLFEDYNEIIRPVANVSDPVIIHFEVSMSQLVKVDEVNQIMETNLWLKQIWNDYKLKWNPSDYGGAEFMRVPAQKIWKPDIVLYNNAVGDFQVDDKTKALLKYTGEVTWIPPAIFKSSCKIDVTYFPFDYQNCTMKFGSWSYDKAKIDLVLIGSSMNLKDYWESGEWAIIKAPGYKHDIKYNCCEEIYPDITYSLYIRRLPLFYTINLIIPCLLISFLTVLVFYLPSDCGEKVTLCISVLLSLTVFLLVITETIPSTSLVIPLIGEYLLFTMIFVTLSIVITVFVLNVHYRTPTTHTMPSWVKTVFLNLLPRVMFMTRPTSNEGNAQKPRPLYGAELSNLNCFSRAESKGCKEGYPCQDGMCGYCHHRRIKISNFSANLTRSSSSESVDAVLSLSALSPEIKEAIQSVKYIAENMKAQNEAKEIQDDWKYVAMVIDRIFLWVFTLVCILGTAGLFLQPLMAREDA
T2 sequence (P43681 29-627 limits assumed): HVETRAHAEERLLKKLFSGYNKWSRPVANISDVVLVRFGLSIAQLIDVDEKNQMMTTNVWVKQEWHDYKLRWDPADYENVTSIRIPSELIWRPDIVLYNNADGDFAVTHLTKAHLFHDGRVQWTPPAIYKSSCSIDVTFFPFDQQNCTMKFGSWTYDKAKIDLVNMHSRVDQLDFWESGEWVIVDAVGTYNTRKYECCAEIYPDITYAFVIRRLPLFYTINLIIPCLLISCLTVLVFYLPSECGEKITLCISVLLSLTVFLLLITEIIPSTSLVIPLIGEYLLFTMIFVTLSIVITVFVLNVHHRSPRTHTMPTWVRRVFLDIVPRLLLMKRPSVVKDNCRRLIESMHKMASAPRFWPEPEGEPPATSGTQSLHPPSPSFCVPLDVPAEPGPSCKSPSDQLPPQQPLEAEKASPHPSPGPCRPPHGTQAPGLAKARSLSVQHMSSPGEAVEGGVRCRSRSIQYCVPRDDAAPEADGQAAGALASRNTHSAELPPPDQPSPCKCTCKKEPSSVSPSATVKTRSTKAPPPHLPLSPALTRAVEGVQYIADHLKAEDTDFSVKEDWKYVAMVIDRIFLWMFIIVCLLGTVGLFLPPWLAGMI
T2 sequence (P17787 26-502): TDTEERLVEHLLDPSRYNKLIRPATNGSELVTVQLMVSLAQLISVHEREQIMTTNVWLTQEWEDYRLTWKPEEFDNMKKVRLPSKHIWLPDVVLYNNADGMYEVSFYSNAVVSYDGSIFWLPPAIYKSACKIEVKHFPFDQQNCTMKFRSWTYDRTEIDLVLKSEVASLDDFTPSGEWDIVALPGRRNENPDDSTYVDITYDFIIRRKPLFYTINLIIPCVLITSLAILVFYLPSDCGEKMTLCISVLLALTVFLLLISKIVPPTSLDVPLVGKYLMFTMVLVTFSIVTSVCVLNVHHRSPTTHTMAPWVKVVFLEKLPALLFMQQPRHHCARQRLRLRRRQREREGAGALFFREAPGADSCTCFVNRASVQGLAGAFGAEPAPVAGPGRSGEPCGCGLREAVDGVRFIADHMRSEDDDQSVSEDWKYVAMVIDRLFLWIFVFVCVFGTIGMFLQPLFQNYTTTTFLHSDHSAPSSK

## C[N+](C)(C)[C@@H](Cc1c[nH]c(=S)[nH]1)C(=O)[O-] [L-ergothioneine]
[1]; FIG. 3, [125I]epibatidine
  activity to inhibit binding of substrates to α3β4 receptors: strong activity
[1]; five concentrations 30-3000 μM, 0.05 nM [125I]epibatidine, CHO-K1 cell membranes, 25° C., 60 minutes, read-out: 50% inhibitory concentration
  IC50: 1.11 mM
[2]
  activity to inhibit binding of substrates to α4β2 receptors: showed the activity
[3]
  activity to inhibit binding of substrates to α7 receptors: showed the activity
